Measured values as given in paper PMC5522181 (ACS chemical neuroscience, 2017).
Where two headings read alike, the source gives them in different places.

Assays:
Pharmacokinetics = conditions: both, rhesus monkey, sc
in vitro = conditions: plasma, pH 7.4
[1] = Plasma protein binding by equilibrium dialysis
[2] = rhesus monkey, in vivo, sc
[3] = CNO 10 mg/kg IM, monkeys; cited from earlier work
human Pgp (MDCK-MDR1) = human Pgp (MDCK-MDR1) (Homo sapiens, UniProt P08183); experiment: Bidirectional transport across MDR1-MDCK cell monolayers; assay type: in vitro ADME; conditions: CNO 5 μM
human Pgp (MDCK-MDR1), sequence (P08183 whole entry): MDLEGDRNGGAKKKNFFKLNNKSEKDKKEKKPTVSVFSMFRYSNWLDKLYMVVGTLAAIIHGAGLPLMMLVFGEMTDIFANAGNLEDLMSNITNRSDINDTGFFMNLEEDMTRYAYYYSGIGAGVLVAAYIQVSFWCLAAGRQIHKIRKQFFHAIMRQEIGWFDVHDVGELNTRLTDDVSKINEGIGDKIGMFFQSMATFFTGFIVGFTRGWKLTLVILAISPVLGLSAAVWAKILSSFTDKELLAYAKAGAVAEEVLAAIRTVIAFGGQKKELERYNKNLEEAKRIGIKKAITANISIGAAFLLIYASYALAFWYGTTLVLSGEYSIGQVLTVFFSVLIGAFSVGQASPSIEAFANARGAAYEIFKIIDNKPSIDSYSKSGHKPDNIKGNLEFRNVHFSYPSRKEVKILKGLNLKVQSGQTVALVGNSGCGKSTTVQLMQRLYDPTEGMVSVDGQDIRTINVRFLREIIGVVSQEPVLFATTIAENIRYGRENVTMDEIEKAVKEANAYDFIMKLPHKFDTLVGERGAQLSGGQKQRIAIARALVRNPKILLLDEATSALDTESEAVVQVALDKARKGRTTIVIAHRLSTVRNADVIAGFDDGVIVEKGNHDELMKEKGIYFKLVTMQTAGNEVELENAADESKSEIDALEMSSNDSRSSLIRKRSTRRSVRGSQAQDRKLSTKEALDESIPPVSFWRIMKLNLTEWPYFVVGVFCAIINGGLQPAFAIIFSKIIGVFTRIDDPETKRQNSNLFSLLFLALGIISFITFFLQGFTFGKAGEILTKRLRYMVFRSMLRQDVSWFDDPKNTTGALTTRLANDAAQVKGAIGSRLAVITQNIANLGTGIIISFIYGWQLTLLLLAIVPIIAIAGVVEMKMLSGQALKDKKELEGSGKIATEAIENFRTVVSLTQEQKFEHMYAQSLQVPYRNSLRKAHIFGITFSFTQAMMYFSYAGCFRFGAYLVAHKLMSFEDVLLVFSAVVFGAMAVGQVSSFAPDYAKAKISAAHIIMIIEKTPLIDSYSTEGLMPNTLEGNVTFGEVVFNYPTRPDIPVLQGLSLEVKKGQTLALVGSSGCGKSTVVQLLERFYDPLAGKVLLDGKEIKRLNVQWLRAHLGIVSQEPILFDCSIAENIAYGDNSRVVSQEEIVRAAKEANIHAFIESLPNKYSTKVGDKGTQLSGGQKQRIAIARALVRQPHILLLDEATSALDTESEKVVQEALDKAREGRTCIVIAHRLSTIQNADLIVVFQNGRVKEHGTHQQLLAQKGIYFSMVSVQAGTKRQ

BCRP (MDCK-BCRP) = target: T1, BCRP (MDCK-BCRP) (Homo sapiens, UniProt Q9UNQ0); experiment: Bidirectional transport across BCRP-MDCK cell monolayers; assay type: in vitro ADME; conditions: MDCK-BCRP monolayer; CNO 5 μM; 120 min; no inhibitor
T1 sequence (Q9UNQ0 1-655): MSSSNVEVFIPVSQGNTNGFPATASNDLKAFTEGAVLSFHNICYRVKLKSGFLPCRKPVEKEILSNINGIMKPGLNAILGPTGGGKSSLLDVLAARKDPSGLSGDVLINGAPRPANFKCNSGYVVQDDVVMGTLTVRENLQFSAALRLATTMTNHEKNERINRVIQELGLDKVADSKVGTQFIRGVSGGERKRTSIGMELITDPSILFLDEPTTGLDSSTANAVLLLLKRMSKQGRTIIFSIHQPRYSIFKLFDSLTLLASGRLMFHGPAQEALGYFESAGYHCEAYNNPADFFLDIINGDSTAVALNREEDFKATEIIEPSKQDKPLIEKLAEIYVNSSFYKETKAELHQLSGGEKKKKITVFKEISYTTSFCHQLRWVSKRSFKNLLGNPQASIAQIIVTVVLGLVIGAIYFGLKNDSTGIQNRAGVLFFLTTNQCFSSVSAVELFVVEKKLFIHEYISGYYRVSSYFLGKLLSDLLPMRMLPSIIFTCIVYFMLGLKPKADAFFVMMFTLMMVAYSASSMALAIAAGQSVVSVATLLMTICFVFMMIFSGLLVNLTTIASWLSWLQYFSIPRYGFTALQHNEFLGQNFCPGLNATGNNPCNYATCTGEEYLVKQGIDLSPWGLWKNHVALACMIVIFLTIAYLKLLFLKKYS

[4] = MDCK-Pgp monolayer, 120 min, no inhibitor

| Tmax (Pharmacokinetics; CSF, 3 mg/kg) [h] | Tmax (Pharmacokinetics; CSF, 10 mg/kg) [h] | Tmax (Pharmacokinetics; plasma, 3 mg/kg) [h] | fraction unbound at 4 h, 1 μM (in vitro) | fraction unbound at 4 h, 1 μM ([1]; pH 7.4) | Compound | AUC at 3 mg/kg as share of AUC at 10 mg/kg [2] | AUC ([2]; 3 mg/kg) [ng·h/mL] | AUC ([2]; 10 mg/kg) [ng·h/mL] | Cmax ([2]; 10 mg/kg) [µM] | Tmax ([2]; 10 mg/kg) [min ^b] | Tmax in CSF [3] [h] | average concentration in CSF [3] [ng/mL] | fu (fraction unbound), PPB ([1]; 1 μM, 4 h at 37 °C, equilibrium dialysis) | A-B permeability (Papp) (human Pgp (MDCK-MDR1); [4]) [×10⁻⁶ cm/s] | B-A permeability (Papp) (human Pgp (MDCK-MDR1); [4]) [×10⁻⁶ cm/s] | Pgp substrate assessment (human Pgp (MDCK-MDR1); MDCK-Pgp) | A-B permeability (Papp) (BCRP (MDCK-BCRP)) [×10⁻⁶ cm/s] | B-A permeability (Papp) (BCRP (MDCK-BCRP)) [×10⁻⁶ cm/s] |
| --- | --- | --- | --- | --- | --- | --- | --- | --- | --- | --- | --- | --- | --- | --- | --- | --- | --- | --- |
| 24 | 24 | 24 | 0.11 |  | Clc1ccc2c(c1)N=C(N1CCNCC1)c1ccccc1N2 [N-desmethylclozapine] |  |  |  |  |  |  |  |  |  |  |  |  |  |
| 2.67 | 2.67 | 2.67 |  | 0.05 | CN1CCN(C2=Nc3cc(Cl)ccc3Nc3ccccc32)CC1 [clozapine] |  |  |  |  |  |  |  |  |  |  |  |  |  |
|  |  |  |  |  | clozapine-N-oxide [CNO] | approximately 65% | 519 | 795 | 7 | 90 | 1 | 9 | 0.43 | 0.05 | 1 | substrate of Pgp | 0.07 | 0.21 |
